Converted amounts (≈) assume the structure as drawn.
Legend:
[1] = developed as an antidepressant; cited from earlier work
[2] = test system: human fetal lung fibroblasts; experiment: Fibroblast chemotaxis toward fibronectin (Boyden blindwell chamber); type: cell-based
Procedure: Since the activity of a PDE4 inhibitor should be dependent on endogenous cyclic AMP levels, a study was designed to determine if endogenous prostaglandin production rendered cells susceptible to the effects of Ariflo. To accomplish this, human fetal lung fibroblasts were cultured and, after achieving confluence, were incubated for 60 minutes with and without indomethacin (2×10^−6 M) to inhibit cyclooxygenase. Fibroblasts were then trypsinized and placed in the upper portion of a Boyden blindwell chemotaxis chamber. Fibronectin, 20 μg/ml, was placed in the lower portion of the chamber as the chemoattractant. Indomethacin (2×10^−6 M) was added to the upper side of the chemotaxis chamber. […] In three separate experiments, the concentration of Ariflo required to inhibit chemotaxis by 50% was 4.9±2.5 μg/ml. In the presence of indomethacin, Ariflo inhibited chemotaxis only at the highest concentration tested 10 μg/ml reducing the response to 58.7±21.0% of control (p<005) compared to indomethacin. […] Since cyclooxygenase activity and prostaglandin production can be modulated by a variety of mediators present in an inflammatory milieu, fibroblasts in such a setting may be particularly sensitive to the inhibitory effects of Ariflo. Such an effect has therapeutic value in fibrotic disorders.

For `COc1ccc(C2CNC(=O)C2)cc1OC1CCCC1` (centres unmarked) [rolipram], the “side effects in clinical studies” value [1] is given as “has psychotropic activity and produces gastrointestinal effects, e.g., pyrosis, nausea and emesis”.

For `COc1ccc2c(c1)c(CC(=O)O)c(C)n2C(=O)c1ccc(Cl)cc1` [Indomethacin, indomethacin, reference compound], the “chemotaxis, % compared to control” value ([2]; indomethacin alone 2×10^−6 M, fibronectin 20 μg/ml) was 159±33%.

In the case of `COc1ccc([C@]2(C#N)CC[C@@H](C(=O)O)CC2)cc1OC1CCCC1` [Ariflo, cis 4-cyano-4-(3-cyclopentyloxy-4-methoxyphenyl)cyclohexan-1-carboxylic acid], the activity at 10 µg/mL ([2]; Homo sapiens, Fibroblast, Ariflo 10 μg/ml in the presence of indomethacin 2×10^−6 M, compared to indomethacin, read-out: chemotaxis response, % of control) is reported as 58.7 ± 21%, the IC50 ([2]; Homo sapiens, Fibroblast, control fibroblasts (no indomethacin), fibronectin 20 μg/ml as chemoattractant, three separate experiments, read-out: concentration required to inhibit chemotaxis by 50%) is reported as 4.9 ± 2.5 µg/mL (≈ 14.3 µM) and the “effect on chemotaxis (in words)” value ([2]; added to control fibroblasts) is reported as “inhibited chemotaxis in a concentration dependent manner”.
